Among the data in EP0195496A2, “Use of xanthines in the treatment of proliferative skin disease” (BEECHAM GROUP PLC, priority 1985, dated 1986) are Ki values, retold here.

This test addresses cyclic AMP phosphodierterase. Description: cyclic AMP phosphodiesterase activity in rat gastrocnemius muscle homogenates (Dixon plot). In kind it is biochemical. Conditions: homogenates of rat gastocnemius muscle, 0.31 uM cyclic AMP as substrate, Dixon plot extrapolation. The procedure:
The activity of cyclic AMP phosphodierterase in homogenates of rat gastocnemius muscle was measured in the presence of various concentrations of compounds of formulae (I), (II), (III), (IV) or (V) using 0.31 uM cyclic AMP as substration. The reciprocal of the reaction rate was plotted on the y axis against the concentration of each compound on the x axis (Dixon plot). The apparent Ki value was estimated by extrapolating the steeper linear portion of the Dixon plot to the x axis and obtaining the negative intercept on the x axis.

Setting [1] is: compounds of formula (III), read-out: Apparent Ki value.
Where [2] appears, read: compounds of formula (II), read-out: Apparent Ki Value.
The mark [3] stands for this setting: compounds of formula (I), read-out: Apparent Ki value.

pKi: −log10 of the molar value. Where two headings read alike, the source gives them in different places.

For orientation: pKi means −log10 of the Ki, conventionally taken in molar units.

In the case of `CCn1c(=O)c2c(ncn2CC2(C)OCCO2)n(CC)c1=O`, under setting [1], the pKi was 4.14.

In the case of `CCCCn1c(=O)c2c(ncn2CC2(C)OCCO2)n(CC)c1=O`, the pKi under setting [1] was 4.35.

In the case of `CCCCn1c(=S)c2c(ncn2CC(C)=O)n(CC)c1=O`, the pKi under setting [2] was 4.39.

In the case of `CCCCn1c(=S)c2c(ncn2CCC(C)=O)n(CC)c1=O`, the pKi under setting [2] is 4.64.

For `CCCCn1c(=O)c2c(ncn2C(C)C(C)=O)n(CC)c1=O` (centres unmarked), under setting [3], the pKi was 4.61.

For the compound `CCCCn1c(=O)c2c(ncn2C(C)C(C)=O)n(CCCC)c1=O` (centres unmarked), under setting [3], the pKi is 4.52.

As for `CCCCn1c(=O)c2c(ncn2C(C)CC(C)=O)n(CCCC)c1=O` (centres unmarked), the pKi under setting [3] is 4.76.

Regarding `CC(=O)Cn1cnc2c1c(=O)n(C(C)C)c(=O)n2C(C)C` [1,3-di-iso-propyl-7-(2-oxopropyl) xanthine], the pKi under setting [3] is 5.21.

In the case of `CCCCn1c(=O)c2c(ncn2CC(C)=O)n(CCCC)c1=S` [1,3-di-n-butyl-7-(2-oxopropyl)-2-thioxanthine], the pKi under setting [2] is 5.60.

Regarding `CCCCn1c(=O)c2c(ncn2CC(C)(OC)OC)n(CCCC)c1=O` [1,3-di-n-butylxanthin-7-yl propan-2-one, dimethyl ketal], the pKi under setting [1] was 4.57.

As for `CCCCn1c(=O)c2c(ncn2CC2(C)OCCO2)n(CCCC)c1=O` [2-methyl-2-[(1,3-di-n-butylxanthin-7-yl)methyl]-1,3-di oxolane], the pKi under setting [1] is 4.54.

Consider `CCCn1c(=O)c2c(ncn2CCC(C)=O)n(CCC)c1=O` [formula (I) R^1=C3H7 R^2=C3H7 X=-(CH2)2-], for which, under setting [3], the pKi was 4.57.

On to `CCCCn1c(=O)c2c(ncn2CCC(C)=O)n(CC)c1=O` [formula (I) R^1=C4H9 R^2=C2H5 X=-(CH2)2-, 1-n-butyl 3-ethyl-7-(3-oxobutyl) xanthine], for which, under setting [3], the pKi was 4.92.

For the compound `CCCCn1c(=O)c2c(ncn2CC(C)=O)n(CC)c1=O` [formula (I) R^1=C4H9 R^2=C2H5 X=-CH2-], the pKi under setting [3] is 4.68.

For the compound `CCCCn1c(=O)c2c(ncn2CC(C)=O)n(CCC)c1=O` [formula (I) R^1=C4H9 R^2=C3H7 X=-CH2-, 1-n-butyl 3-n-propyl-7-(2-oxopropyl) xanthine], the pKi under setting [3] was 5.70.

In the case of `CCCCn1c(=O)c2c(ncn2CCC(C)=O)n(CCCC)c1=O` [formula (I) R^1=C4H9 R^2=C4H9 X=-(CH2)2-, 1,3-di-n-butyl-7-(3-oxobutyl) xanthine], under setting [3], the pKi was 4.60.

Consider `CCCCn1c(=O)c2c(ncn2CCCC(C)=O)n(CCCC)c1=O` [formula (I) R^1=C4H9 R^2=C4H9 X=-(CH2)3-], for which the pKi under setting [3] was 4.41.

Turning to `CCCCn1c(=O)c2c(ncn2CCCCC(C)=O)n(CCCC)c1=O` [formula (I) R^1=C4H9 R^2=C4H9 X=-(CH2)4-, 1,3-di-n-butyl-7-(5-oxohexyl)xanthine], under setting [3], the pKi was 4.85.

As to `CCCCn1c(=O)c2c(ncn2CC(C)=O)n(CCCC)c1=O` [formula (I) R^1=C4H9 R^2=C4H9 X=-CH2-, 1,3-di-n-butyl-7-(2-oxopropyl) xanthine], under setting [3], the pKi was 5.48.

Regarding `CCCCn1c(=O)n(CCCCC(C)=O)c(=O)c2c1ncn2CC(C)=O` [formula (V) R^12=C4H9, 1-(5-oxohexyl)-3-n-butyl-7-(2-oxopropyl) xanthine], the pKi (compounds of formula (V), read-out: Apparent Ki value) is 5.41.
